According to publication PMC8009417, “Selective killing of homologous recombination-deficient cancer cell lines by inhibitors of the RPA:RAD52 protein-protein interaction” (PLoS ONE, 2021):

Key:
[1] = system: UWB1.289 cells with or without BRCA1 restoration; assay: Apoptosis by cleaved PARP western blot; type: cell-based, human; settings: 0.2 μM for three days; BRCA1-mutated vs BRCA1-restored UWB1.289
Experimental: UWB1.289 cells with or without restoration of the BRCA1 expression were treated with 0.2 μM of mitoxantrone (MX) for three days. Olaparib (Ola) at 1 μM was used as control for the induction of apoptosis. Near EC50 concentrations were selected for each compound. After the treatment with each compound, cell lysates were prepared and cleaved PARP was detected with (A) anti-cleaved PARP antibody (Cell Signaling Technology #9541) and (B) anti-PARP antibody (Cell Signaling Technology #9542). Tubulin detected with anti-beta-tubulin antibody (Cell Signaling Technology #15115) was used as an internal control. (C) Ratios of cleaved PARP to tubulin were determined with ImageJ and graphed. Three independent experiments were performed and the mean values are shown. The bars indicate standard deviations. Statistical significance of differences was determined with Student t-test (* p<0.05 and ** p<0.01).

[2] = target: T1, RPA:RAD52 protein-protein interaction (Homo sapiens, UniProt P43351); assay: FluorIA (Fluorescence-based protein-protein Interaction Assay), GFP-RAD52 binding to plate-coated RPA; settings: polynomial curve fitting; 15 dose concentrations 0.03–500 μM, triplicate; RAD52(1–303) positive control; read-out: EC50 in FluorIA (inhibition of RPA:RAD52 PPI)
T1 construct: made in house
T1 sequence (P43351 1-418): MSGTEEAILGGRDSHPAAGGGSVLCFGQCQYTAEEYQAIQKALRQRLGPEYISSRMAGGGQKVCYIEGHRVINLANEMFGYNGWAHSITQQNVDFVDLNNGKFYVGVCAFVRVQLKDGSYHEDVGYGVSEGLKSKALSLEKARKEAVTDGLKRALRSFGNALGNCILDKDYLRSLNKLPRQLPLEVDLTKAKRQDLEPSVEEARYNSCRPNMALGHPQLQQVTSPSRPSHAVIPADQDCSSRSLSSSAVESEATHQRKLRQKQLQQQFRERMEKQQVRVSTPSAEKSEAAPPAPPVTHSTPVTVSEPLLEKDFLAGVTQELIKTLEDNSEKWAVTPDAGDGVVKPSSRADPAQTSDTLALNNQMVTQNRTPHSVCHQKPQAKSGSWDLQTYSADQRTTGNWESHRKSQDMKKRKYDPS
Experimental: A newly developed fluorescence-based assay for detecting protein-protein interactions, FluorIA was used to identify SMIs of RPA:RAD52 PPI. The detailed FluorIA protocol is published elsewhere. Briefly, 384-well plates (Thermo Fisher Scientific, #460518) were coated with purified RPA. Then compounds or controls were added and incubated with freshly prepared GFP-RAD52. RAD52(1–303) without GFP-tag and buffer (including DMSO) only were used as controls. Then the relative fluorescence (RFU) was measured using a POLARstar OPTIMA plate reader (BMG LABTECH) on emptied plates at an excitation/emission (for eGFP) of 485/520 nm at 2500 gain setting.
Three chemical libraries the 355-member SelleckChem Kinase Inhibitor Library, the 1200-member Prestwick Chemical Library, and the 100,000-member ChemBridge library were used for the screening. The screening of the SelleckChem Kinase Inhibitor and the Prestwick libraries were performed at 10 and 100 μM each in duplicate. The screening of the ChemBridge library was conducted at 100 μM. […] The statistical criteria for a hit were fully described in Al-Mugotir et al.. Each hit was verified in triplicate at 10 and 100 μM.
The in vitro EC50 value of each hit was determined with FluorIA. The chemicals were serially diluted by two-fold increments from 0.030 to 500 μM and analyzed in triplicate with FluorIA. RAD52(1–303) was used as a positive control and buffer with DMSO was used as a negative control. Candidate SMIs with strong inhibition were purchased, and a 1D NMR analysis was carried out to verify their identities. The eleven candidates SMIs were purchased as follows: 5137134, 5246481, 52614577,5316833, 5373030, and 7623574 from Chembridge HIT2LEAD, 5989499 from Wuxi lab network, 5375405 from Aronis, quinacrine and mitoxantrone from Sigma Aldrich, and doxorubicin from LC labs. D-I03 was purchased from Molport. Their effectiveness in inhibiting the RPA:RAD52 PPI was confirmed after purchase with the FluorIA as described above (S1 Fig).
Supplementary file pone.0248941.s001.tif: S1 Fig Validation experiments of eleven hits with the FlourIA. Sixteen treatment concentrations were used (0.030–500 μM) increasing by two-fold increments of each molecule/drug obtained as a hit in HTS FluorIA. RAD52(1–303) without GFP-tag and buffer (including DMSO) only were used as controls. Percent inhibition was calculated as follows: [(RFUSMI—RFURAD52(1–303)) / (RFUDMSO—RFURAD52(1–303))]*100, where RFU is relative fluorescence unit. An average of triplicate measurements was used. The treatment points for quinacrine and doxorubicin beyond 125 μM were showing characteristics of aggregation and were not used. (TIF) Click here for additional data file.

[3] = system: T2, RPA:RAD52 PPI in U2OS cells; assay: Size exclusion chromatography and co-immunoprecipitation of RAD52 with RPA from treated cells; type: cell-based; settings: 3 nM, 24 hours, preliminary experiments
T2 construct: endogenous in cells; host or cells: U2OS
Experimental: (A) RAD52 was co-immunoprecipitated with RPA in the fractions 5, 8, and 10 in the control experiment. The elution positions of the molecular weight standards, thyroglobulin (669 kDa), apoferritin (443 kDa), beta-amylase (200 kDa), and bovine serum albumin (66 kDa), are indicated below the western blot.
U2OS cells (10^6 cells) were seeded in a 100 mm dish and grown overnight. The cells were treated with the indicated concentrations of mitoxantrone (MTX) for 24 hours. The cell lysate was prepared in 100 μl of lysis buffer (PBS with 0.5% NP40, 0.5% Triton X100, 1 mM DTT, protease and phosphatase inhibitors, and 10% glycerol). After mixing with 100 μl cold PBS, the lysate was incubated with 100 μl of DEAE sepharose (GE Life Sciences) for 2 hours at 4°C with rotation. An unbound fraction from DEAE sepharose (~200 μl) was diluted with 200 μl of PBS and half of the mixture was fractionated with Superdex200 (GE Life Sciences) using PBS as elution buffer. Each fraction was incubated with anti-RPA (p32) antibody conjugated with biotin (NeoMarkers, MS-691-B0) at 4°C overnight, then incubated with Streptavidin-magnetic beads (Promega #Z5481) for one hour at 4°C with rotation. […] RAD52 and RPA (p32) were detected by western blotting with anti-RAD52 antibody (LS-C42570, LSBio) and anti-RPA2 antibody (A300-244A, Bethyl Laboratories), respectively.

O=C1c2c(O)ccc(O)c2C(=O)c2c(NCCNCCO)ccc(NCCNCCO)c21 [Mitoxantrone, mitoxantrone]
Induction of apoptosis (cleaved PARP) [1]: preferentially induced apoptosis in the BRCA1-mutated UWB1.289 | EC50 [2]: 29.7 µM | Effect on RPA:RAD52 PPI in cells (co-immunoprecipitation of RAD52 with RPA) [3]: disrupts the RPA:RAD52 PPI in cells
